Assay results reported in PMC5662717, “Angiotensin II-derived constrained peptides with antiplasmodial activity and suppressed vasoconstriction” (Scientific Reports, 2017).
Where a SMILES comes first, the peptide text is derived from it. Bridges are numbered along the chain shown (N, C = ends). Where no end group is shown, it is not given here.

Tests used:
[1] = system: Plasmodium gallinaceum sporozoites; experiment: Effect of peptides on salivary gland-derived sporozoites (membrane permeability, propidium iodide fluorescence microscopy); format: cell-based; details: digitonin 40 μmol L–1 in PBS
Experimental: The effect of the peptides on sporozoites was determined in vitro by fluorescence microscopy. Briefly, the parasites were incubated for one hour in the presence of each peptide and the fluorophore propidium iodide, which stains dead and dying cells. The results are reported as the percent of fluorescent (i.e., inactivated) sporozoites. The analyses were carried out in triplicate, using three different mosquito batches (n = 9).
Aedes aegypti RED strain was used in experiments due to their hypersensitivity to P. gallinaceum parasite. Mosquitoes were reared using standard laboratory procedures. An aliquot of frozen chicken blood infected with the P. gallinaceum strain 8 A was obtained from A Krettli (René Rachou Institute of Research, FIOCRUZ, MG, Brazil). […]
Nine thousand P. gallinaceum mature sporozoites were pulled from the salivary glands of A. aegypti and incubated in 50 μL of PBS solution, with 40 μmol L^–1 digitonin (positive control), 60 μmol L^–1 peptides or negative control (PBS solution), at 37 °C for one hour. Cell membrane integrity was then observed using a Carl Zeiss inverted fluorescence microscope (model Observer Axio Vision A.1) coupled to an image capture Zeiss AxioCam HR digital camera (1,300 × 1,030 pixels resolution and 8-bit quantization) after addition of 1 μL of the propidium iodide aqueous solution (200 μmol L^–1) in 5 μL of total solution volume. […]

human red blood cells = format: cell-based; details: for Hemolysis of red blood cells: red cells of human, 24 h, 1e-8 mol L^−1
Experimental: Assessing toxicity is a key requirement for translating novel compounds into the clinic. Therefore, we evaluated the hemolytic activity of Ang II peptide derivatives 1 and 2 towards erythrocyte human cells. Erythrocytes were seeded in 96-well plates in the absence (negative control) or presence of 10^−8 mol L^−1 of the analogs, as described in the Methods Section.
Figure 3 Hemolytic assay of human red blood cells. Red blood cells were treated with distilled water which causes lysis of red blood cells; uninfected erythrocytes were kept in the same conditions used in the invasion assay with a control and each peptide tested (10^−8 mol L^−1), at 37 °C for 24 h. After incubation, the supernatant was collected, clarified at 900 g/8 min and the hemoglobin content was detected in a spectrophotometer at […]. **** denotes statistical significance of group compared with distilled water value p < 0.05.
The hemolytic effect of analogs 1 and 2 was determined in uninfected erythrocytes. Cells were maintained in the same culture conditions in the presence of 10^−8 mol L^−1 of peptides for 24 h. Erythrocytes were centrifuged at 900 g for 8 min. The free hemoglobin in the supernatant was monitored by spectrophotometer at 550 nm. Untreated cells were used as negative control to rule out nonspecific hemolysis. The hemolytic activity was expressed as a percentage of the control. This positive control (100% hemolysis) was prepared by treating the erythrocytes with distilled water.

stomach fundus = system: stomach fundus; parameters: species or system C57BL/6 J mice; details: pH 7.4
Experimental: The bioassay experiment was carried out in duplicate and generated equivalent results. Experiments were carried out using C57BL/6 J mice from the Centro de Desenvolvimento de Modelos Experimentais da Universidade Federal de São Paulo (CEDEME-UNIFESP).
Stomach fundus was isolated from each mouse, divided into two strips along the longitudinal muscle, and mounted into 5 mL organ baths containing modified Krebs-Ringer solution [144 mmol L^–1 NaCl, 5 mmol L^–1 KCl, 1.1 mmol L^–1 MgSO4, 25 mmol L^–1 NaHCO3, 1.1 mmol L^–1 NaH2PO4, 1.25 mmol L^–1 CaCl2, and 5.5 mmol L^–1 glucose at 37 °C (pH 7.4)] and were continuously carboxygenated (95% O2/5% CO2)[29]. Contractile responses to the stimulations with Ang II and analogs 1 and 2 (10^–8 mol L^–1) were measured with a TRI201 tension transducer (PanLab) through an amplifier (Powerlab 4/30). Data were collected through Labchart Pro V7 software. The resting tension was maintained at 0.5 g and the tissues were left to equilibrate for 90 min. The bath solution was frequently changed. The maximal effect was obtained by comparing contractile responses induced by carbachol (10^–8 mol L^–1).

[2] = system: Plasmodium gallinaceum sporozoites; details: cited from earlier work; for Antiplasmodial activity against P. gallinaceum sporozoites, linear peptides: ref 12 (Silva et al.)
Excerpt: Silva et al.[12], tested several linear Ang II derivative peptides in vitro using both the P. gallinaceum sporozoite and the P. falciparum blood stage models. Two short peptides presented high antiplasmodial activity: YHPF and VIPF presented 89% and 94% activity against P. gallinaceum, respectively, and ~50% activity against erythrocyte invasion by P. falciparum. […] Analog 4 was designed via the removal of these two residues. Silva et al., studied linear peptides and observed that peptide DRVYHIPF had potent biological activity (94% against P. gallinaceum sporozoites). The sequence of peptide 1 is similar to that of Ang II, whereas peptide 2 presents a sequence that resembles Ang II with modifications in His and Ile residues (DRVYHIPF). Peptide 4, on the other hand, lacks Ile and His amino acid residues within its backbone. […] Peptide sequence CDRVCYIHPF[7] presented 76% (±3) antiplasmodial activity vs sporozoites of P. gallinaceum. Silva et al., studied different linear Ang II derivative peptides[12] and observed that when His and Ile residues are inverted, the antiplasmodial activity increased cf. peptides with the native primary sequence. To verify this observation, here we inverted the position of Ile and His residues in peptide 3. The resulting peptide presented increased antiplasmodial ...

Plasmodium = details: cited from earlier work; for Antiplasmodial activity relative to Ang II (in words): lactam bridge analogs, ref 6 (Torres et al.); for Biological activity (antiplasmodial): ref 4 (Maciel et al.)
Excerpt: Three of these analogs (i.e., EDRKVYI ...

Plasmodium falciparum [3] = details: ref 12 (Silva et al.); cited from earlier work
Excerpt: Table 1 Design of angiotensin II-derived synthetic peptides. Purity of peptides determined by LC/MS is shown, along with their respective antiplasmodial activity and design rationale. | column: Antiplasmodial activity vs P. falciparum (new ring formation%) || Silva et al.[12], tested several linear Ang II derivative peptides in vitro using both the P. gallinaceum sporozoite and the P. falciparum blood stage models. Two short peptides presented high antiplasmodial activity: YHPF and VIPF presented 89% and 94% activity against P. gallinaceum, respectively, and ~50% activity against erythrocyte invasion by P. falciparum. […] The authors observed that Ang II reduced by 47% reinfection caused by ring forms. Silva and colleagues tested linear Ang II derivatives using the same model and observed that two short peptides were capable of reducing parasite reinfection >50%[12]. In this work, we tested designer peptides using the P. falciparum erythrocytic cycle and observed that two peptides (1 and 2) were able to reduce ... || (+ 1 further places)

Plasmodium falciparum [4] = experiment: Erythrocytic invasion assay (new ring formation) and IC50 determination; format: cell-based; details: 10^−8 mol L^−1 peptide, 24 h, W2 strain, 2–3% parasitemia, 5% hematocrit; reduction versus untreated control, normalized
Experimental: The effect of peptides in the P. falciparum erythrocytic cycle was assayed in vitro against a synchronized culture in the schizont form of P. falciparum, maintaining 5% hematocrit and 2% parasitemia. Twenty-four hours after treatment, all peptides reduced new ring formation within erythrocytes at 10^−8 mol L^−1, which was described by Saraiva et al. as the ideal concentration for these inhibition assays. The tests were carried out in duplicate and a total of ten experiments were performed (n = 10). Data were normalized due to differences between controls from each assay. It was observed that three analogs reduced the number of rings formed in the blood stage, but only analogs 1 and 2 presented inhibition >40%, when compared to the untreated controls (Fig. 2B).
The erythrocytic cycle of Plasmodium falciparum was maintained in vitro by culturing W2 strains in 1640 medium, supplemented with A-type human blood and serum, as described by Saraiva et al.[15] […]
To synchronize the parasite cultures into the ring stage, we used a sorbitol solution (5%) according to Lambros and Vanderberg[28]. […] Invasion was evaluated by the appearance of new ring forms. The invasion percentage was determined by optical microscopy (1000x magnification), which represents the total number of cells infected by rings in 100 erythrocytes in at least ten random microscopic fields. […]

## C[C@@H]1CC[C@@]2(OC1)O[C@H]1[C@@H](O)[C@H]3[C@@H]4CC[C@H]5C[C@@H](O[C@@H]6O[C@H](CO)[C@H](O[C@@H]7O[C@H](CO)[C@@H](O)[C@H](O[C@@H]8OC[C@@H](O)[C@H](O)[C@H]8O)[C@H]7O[C@@H]7O[C@H](CO)[C@H](O)[C@H](O[C@@H]8O[C@H](CO)[C@@H](O)[C@H](O)[C@H]8O)[C@H]7O)[C@H](O)[C@H]6O)[C@H](O)C[C@]5(C)[C@H]4CC[C@]3(C)[C@H]1[C@@H]2C [digitonin]
[1]
  Lysis of parasite membranes by the positive control: 100%

## CC[C@H](C)[C@@H]1NC(=O)[C@H](Cc2ccc(O)cc2)NC(=O)[C@H](C(C)C)NC(=O)[C@H](CCCNC(=N)N)NC(=O)[C@H](CC(=O)O)NC(=O)[C@@H](N)CSSC[C@@H](C(=O)O)NC(=O)[C@H](Cc2ccccc2)NC(=O)[C@@H]2CCCN2C(=O)[C@H](Cc2c[nH]cn2)NC1=O [Peptide 1] (H-CDRVYIHPFC-OH; disulfide 1-10)
Human red blood cells
  Hemolytic effect (in words): did not present hemolytic effects
  Hemolysis of red blood cells: < 6%
Stomach fundus
  Contractile response / vasoconstriction (in words): complete suppression of vasoconstriction

## CC[C@H](C)[C@@H]1NC(=O)[C@H](Cc2c[nH]cn2)NC(=O)[C@H](Cc2ccc(O)cc2)NC(=O)[C@H](C(C)C)NC(=O)[C@H](CCCNC(=N)N)NC(=O)[C@H](CC(=O)O)NC(=O)[C@@H](N)CSSC[C@@H](C(=O)O)NC(=O)[C@H](Cc2ccccc2)NC(=O)[C@@H]2CCCN2C1=O [Peptide 2] (H-CDRVYHIPFC-OH; disulfide 1-10)
Human red blood cells
  Hemolytic effect (in words): did not present hemolytic effects
  Hemolysis of red blood cells: < 6%
Stomach fundus
  Contractile response / vasoconstriction (in words): complete suppression of vasoconstriction

## CDRVCYIHPF (disulfide 1-5 (inferred)) [S-S restricted Ang II analog of Torres et al]
[2]; ref 7 (Torres et al.)
  Antiplasmodial activity vs sporozoites of P. gallinaceum, S-S restricted analog: 76%

## EDRKVYIHPF (also: sidechain bridge or staple (positions not given here)) [lactam bridge Ang II analog of Torres et al]
Plasmodium
  Antiplasmodial activity relative to Ang II (in words): maintained the antiplasmodial activity of Ang II

## DRVYHIPF [linear Ang II derivative of Silva et al., linear counterpart of peptide 2]
[2]
  Antiplasmodial activity against P. gallinaceum sporozoites, linear peptides: 94%

## DRDVKYIHPF (also: sidechain bridge or staple (positions not given here)) [VC-5, restricted (lactam bridge) Ang II analog of Maciel et al]
Plasmodium
  Biological activity (antiplasmodial): 78%

## VIPF [short linear Ang II derivative of Silva et al]
[2]
  Antiplasmodial activity against P. gallinaceum sporozoites, linear peptides: 94%
Plasmodium falciparum [3]
  Activity against erythrocyte invasion by P. falciparum, linear peptides: ~ 50%

## CVIPFC (disulfide 1-6 (inferred)) [Peptide 8]
Plasmodium falciparum [4]
  Antiplasmodial activity vs P. falciparum (new ring formation%): 3.5%

## DDRKVYIHPF [VC-4, linear Ang II analog of Maciel et al]
Plasmodium
  Biological activity (antiplasmodial): 64%

## EDRVOYIHPF (sidechain bridge or staple) [lactam bridge Ang II analog of Torres et al]
Plasmodium
  Antiplasmodial activity relative to Ang II (in words): maintained the antiplasmodial activity of Ang II

## YHPF [short linear Ang II derivative of Silva et al]
[2]
  Antiplasmodial activity against P. gallinaceum sporozoites, linear peptides: 89%
Plasmodium falciparum [3]
  Activity against erythrocyte invasion by P. falciparum, linear peptides: ~ 50%
